We go through 22 compounds from patent US10065956B2, “Ethynyl derivatives” (Hoffmann-La Roche Inc., priority 2015, dated 2018).

The subject of one test is mice. To be noted: mice treated with MPTP; cited from earlier work.
Another test deals with T1, human mGlu4 receptor (Homo sapiens, UniProt Q14833).
T1 construct: expressed in transfected cells; host or cells: monoclonal HEK-293 cell line, stably transfected
As to the kind of experiment: Ca2+ mobilization in vitro assay on recombinant human mGlu4 expressed in HEK293 cells (PAM, L-AP4 at EC20). Particulars: for Emax: HEK293, maximal response in % of the maximal stimulatory effect obtained with saturating concentrations of L-AP4, read-out: Eff. (%); for EC50: HEK293 cells expressing human mGlu4, L-AP4 added at EC20. Format: cell-based. From the text:
FIG. 1: Illustration of the experimental outline for mGlu4 PAM Ca2+ mobilization screening assay and the determination of EC50 and % Emax values.
Determination of EC50 Values Using a Ca2+ Mobilization In Vitro Assay on Recombinant Human mGlu4 Expressed in HEK293 Cells:
A monoclonal HEK-293 cell line stably transfected with a cDNA encoding for the human mGlu4 receptor was generated; for the work with mGlu4 Positive Allosteric Modulators (PAMs), a cell line with low receptor expression levels and low constitutive receptor activity was selected to allow the differentiation of agonistic versus PAM activity. Cells were cultured according to standard protocols (Freshney, 2000) in Dulbecco's Modified Eagle Medium with high glucose supplemented with 1 mM glutamine, 10% (vol/vol) heat-inactivated bovine calf serum, Penicillin/Streptomycin, 50 μg/ml hygromycin and 15 μg/ml blasticidin (all cell culture reagents and antibiotics from Invitrogen, Basel, Switzerland).
About 24 hrs before an experiment, 5×10^4 cells/well were seeded in poly-D-lysine coated, black/clear-bottomed 96-well plates. The cells were loaded with 2.5 μM Fluo-4AM in loading buffer (1×HBSS, 20 mM HEPES) for 1 hr at 37° C. and washed five times with loading buffer. The cells were transferred into a Functional Drug Screening System 7000 (Hamamatsu, Paris, France), and 11 half logarithmic serial dilutions of test compound at 37° C. were added and the cells were incubated for 10-30 min. with on-line recording of fluorescence. Following this pre-incubation step, the agonist (2S)-2-amino-4-phosphonobutanoic acid (L-AP4) was added to the cells at a concentration corresponding to EC20 with on-line recording of fluorescence; in order to account for day-to-day variations in the responsiveness of cells, the EC20 of L-AP4 was determined immediately ahead of each experiment by recording of a full dose-response curve of L-AP4. Responses were measured as peak increase in fluorescence minus basal (i.e. fluorescence without addition of L-AP4), normalized to the maximal stimulatory effect obtained with saturating concentrations of L-AP4. Graphs were plotted with the % maximal stimulatory using XLfit, a curve fitting program that iteratively plots the data using Levenburg Marquardt algorithm. The single site competition analysis equation used was y=A+((B−A)/(1+((x/C)D))), where y is the % maximal stimulatory effect, A is the minimum y, B is the maximum y, C is the EC50, x is the log 10 of the concentration of the competing compound and D is the slope of the curve (the Hill Coefficient). From these curves the EC50 (drug concentration at which 50% of the maximal receptor activation was achieved), the Hill coefficient as well as the maximal response in % of the maximal stimulatory effect obtained with saturating concentrations of L-AP4 were calculated (see FIG. 1). […] A depression of the signal observed after addition of the EC20 concentration of L-AP4 was indicative of an inhibitory activity of the test compound.
On the technique in general: Calcium assays in cells follow changes in intracellular calcium, usually with a dye or a luminescent sensor.

For another test, the system named is rodent. To be noted: 6-OHDA rodent model of PD; cited from earlier work.

T1 sequence (Q14833 33-912): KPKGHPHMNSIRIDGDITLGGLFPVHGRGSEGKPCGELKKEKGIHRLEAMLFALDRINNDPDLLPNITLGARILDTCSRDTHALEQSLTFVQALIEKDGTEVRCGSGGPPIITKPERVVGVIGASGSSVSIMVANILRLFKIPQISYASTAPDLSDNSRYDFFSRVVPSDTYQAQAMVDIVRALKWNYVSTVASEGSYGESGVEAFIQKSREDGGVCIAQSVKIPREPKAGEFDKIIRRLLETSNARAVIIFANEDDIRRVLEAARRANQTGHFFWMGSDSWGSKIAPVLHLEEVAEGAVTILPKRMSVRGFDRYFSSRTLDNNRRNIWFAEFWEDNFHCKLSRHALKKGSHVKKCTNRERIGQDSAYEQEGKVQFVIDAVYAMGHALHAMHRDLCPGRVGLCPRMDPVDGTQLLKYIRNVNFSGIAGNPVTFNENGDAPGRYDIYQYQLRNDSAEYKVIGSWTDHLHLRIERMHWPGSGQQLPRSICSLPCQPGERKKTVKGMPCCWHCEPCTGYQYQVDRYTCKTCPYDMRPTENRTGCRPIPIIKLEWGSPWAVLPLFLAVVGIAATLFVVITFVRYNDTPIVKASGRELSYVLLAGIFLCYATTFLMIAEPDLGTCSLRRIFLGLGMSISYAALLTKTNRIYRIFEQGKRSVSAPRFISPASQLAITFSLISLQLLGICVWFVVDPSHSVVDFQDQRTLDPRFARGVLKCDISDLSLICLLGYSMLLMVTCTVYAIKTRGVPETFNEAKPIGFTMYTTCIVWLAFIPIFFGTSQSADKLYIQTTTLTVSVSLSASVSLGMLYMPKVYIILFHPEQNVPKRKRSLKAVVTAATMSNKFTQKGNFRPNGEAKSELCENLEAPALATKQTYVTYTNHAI

For `O=C(Nc1ccccc1)C12CC1/C(=N\O)c1ccccc1O2` (single isomer, unassigned; (-)) [(−)-PHCCC], the nigrostriatal degeneration entry in the test with mice is “reduced nigrostriatal degeneration”.

Regarding `CN1C(=O)N(c2c(F)cc(C#Cc3ccccc3)cc2F)C(=O)C[C@@]1(C)c1cnn[nH]1` [Example 32, (6S)-3-[2,6-Difluoro-4-(2-phenylethynyl)phenyl]-1,6-dimethyl-6-(1H-triazol-5-yl)hexahydropyrimidine-2,4-dione], on human mGlu4 receptor, the Emax was determined as 114% and the EC50 amounted to 20 nM. For `CN1C(=O)N(c2c(F)cc(C#Cc3ccccc3)cc2F)C(=O)C[C@@]1(C)c1ccns1` [Example 43, (6S)-3-[2,6-Difluoro-4-(2-phenylethynyl)phenyl]-6-isothiazol-5-yl-1,6-dimethyl-hexahydropyrimidine-2,4-dione], in that order: 151% and 67 nM.

For `CN1C(=O)N(c2c(F)cc(C#Cc3ccc(F)cc3)cc2F)C(=O)C[C@@]1(C)c1cn[nH]c1` [Example 54, (6S)-3-[2,6-Difluoro-4-[2-(4-fluorophenyl)ethynyl]phenyl]-1,6-dimethyl-6-(1H-pyrazol-4-yl)hexahydropyrimidine-2,4-dione], on human mGlu4 receptor, the Emax came out at 135% and the EC50 was 27 nM. For `COCCn1cc([C@]2(C)CC(=O)N(c3c(F)cc(C#Cc4ccccc4)cc3F)C(=O)N2C)cn1` [Example 20, (6S)-3-[2,6-Difluoro-4-(2-phenylethynyl)phenyl]-6-[1-(2-methoxyethyl)pyrazol-4-yl]-1,6-dimethyl-hexahydropyrimidine-2,4-dione] the same measures were 137% and 54 nM. For the compound `CN1C(=O)N(c2c(F)cc(C#Cc3ccccc3)cc2F)C(=O)C[C@@]1(C)c1cnn(C2CC2)c1` [Example 52, (6S)-6-(1-Cyclopropylpyrazol-4-yl)-3-[2,6-difluoro-4-(2-phenylethynyl)phenyl]-1,6-dimethyl-hexahydropyrimidine-2,4-dione], at human mGlu4 receptor, the Emax is 127% and the half-maximal effective concentration (EC50) amounted to 31 nM. For `Cn1cc([C@]2(C)CC(=O)N(c3c(F)cc(C#Cc4ccccc4)cc3F)C(=O)N2)cn1` [Example 5, (6S)-3-[2,6-Difluoro-4-(2-phenylethynyl)phenyl]-6-methyl-6-(1-methylpyrazol-4-yl)hexahydropyrimidine-2,4-dione] the same measures were 103% and 110 nM. For `CN1C(=O)N(c2c(F)cc(C#Cc3ccccc3)cc2F)C(=O)C[C@@]1(C)c1ccnn1C` [Example 7, (6S)-3-[2,6-Difluoro-4-(2-phenylethynyl)phenyl]-1,6-dimethyl-6-(2-methylpyrazol-3-yl)hexahydropyrimidine-2,4-dione], in that order: 100% and 147 nM.

Take `CN1C(=O)N(c2c(F)cc(C#Cc3ccccc3)cc2F)C(=O)C[C@@]1(C)c1ccon1` [Example 40, (6S)-3-[2,6-Difluoro-4-(2-phenylethynyl)phenyl]-6-isoxazol-3-yl-1,6-dimethyl-hexahydropyrimidine-2,4-dione]: at human mGlu4 receptor, the Emax was determined as 142% and the EC50 came out at 37 nM. On to `CN1C(=O)N(c2c(F)cc(C#Cc3ccccc3)cc2F)C(=O)C[C@@]1(C)c1cnsc1` [Example 15, (6S)-3-[2,6-Difluoro-4-(2-phenylethynyl)phenyl]-6-isothiazol-4-yl-1,6-dimethyl-hexahydropyrimidine-2,4-dione], for which, at human mGlu4 receptor, the Emax worked out at 167% and the half-maximal effective concentration (EC50) came out at 38 nM. As for `CN1C(=O)N(c2c(F)cc(C#Cc3ccccc3)cc2F)C(=O)C[C@@]1(C)c1nn(C)c2ccccc12` [Example 8, (6S)-3-[2,6-Difluoro-4-(2-phenylethynyl)phenyl]-1,6-dimethyl-6-(1-methylindazol-3-yl)hexahydropyrimidine-2,4-dione], on human mGlu4 receptor, the Emax was 99% and the EC50 came out at 157 nM. Turning to `CN1C(=O)N(c2c(F)cc(C#Cc3cccc(F)c3)cc2F)C(=O)C[C@@]1(C)c1cn[nH]c1` [Example 59, (6S)-3-[2,6-Difluoro-4-[2-(3-fluorophenyl)ethynyl]phenyl]-1,6-dimethyl-6-(1H-pyrazol-4-yl)hexahydropyrimidine-2,4-dione], on human mGlu4 receptor, the Emax came out at 160% and the EC50 is 44 nM.

For `CN1C(=O)N(c2c(F)cc(C#Cc3ccc(F)cc3F)cc2F)C(=O)C[C@@]1(C)c1cn[nH]c1` [Example 56, (6S)-3-[4-[2-(2,4-Difluorophenyl)ethynyl]-2,6-difluoro-phenyl]-1,6-dimethyl-6-(1H-pyrazol-4-yl)hexahydropyrimidine-2,4-dione], at human mGlu4 receptor, the Emax was 143% and the EC50 stood at 44 nM. For `CN1C(=O)N(c2c(F)cc(C#Cc3ccccc3)cc2F)C(=O)C[C@@]1(C)c1cnn2ccccc12` [Example 14, (6S)-3-[2,6-Difluoro-4-(2-phenylethynyl)phenyl]-1,6-dimethyl-6-pyrazolo[1,5-a]pyridin-3-yl-hexahydropyrimidine-2,4-dione], at human mGlu4 receptor, the Emax was 137% and the EC50 came to 93 nM.

Consider `CN1C(=O)N(c2ccc(C#Cc3ccccc3)cc2Cl)C(=O)C[C@@]1(C)c1cnn(C)c1` [Example 37, (6S)-3-[2-Chloro-4-(2-phenylethynyl)phenyl]-1,6-dimethyl-6-(1-methylpyrazol-4-yl)hexahydropyrimidine-2,4-dione], for which, on human mGlu4 receptor, the Emax is 175% and the EC50 stood at 112 nM.

As to `CN1C(=O)N(c2c(F)cc(C#Cc3ccccc3)cc2F)C(=O)C[C@@]1(C)c1ccn(C2CCOC2)n1` (mixture of isomers) [Example 64, (6S)-3-[2,6-Difluoro-4-(2-phenylethynyl)phenyl]-1,6-dimethyl-6-[1-[(3RS)-tetrahydrofuran-3-yl]pyrazol-3-yl]hexahydropyrimidine-2,4-dione], on human mGlu4 receptor, the Emax amounted to 98% and the EC50 was 88 nM. On to `N[C@@H](CCP(=O)(O)O)C(=O)O` [L-AP4, (2S)-2-amino-4-phosphonobutanoic acid], for which, in the test on rodent, the “neuroprotection in 6-OHDA model” value is given as “neuroprotective effects”. Regarding `CN1C(=O)N(c2c(F)cc(C#Cc3cnsc3)cc2F)C(=O)C[C@@]1(C)c1cnn(C)c1` [Example 25, (6S)-3-[2,6-Difluoro-4-(2-isothiazol-4-ylethynyl)phenyl]-1,6-dimethyl-6-(1-methylpyrazol-4-yl)hexahydropyrimidine-2,4-dione], on human mGlu4 receptor, the Emax came to 149% and the EC50 was found to be 45 nM. In the case of `CC(C)n1ccc([C@]2(C)CC(=O)N(c3c(F)cc(C#Cc4ccccc4)cc3F)C(=O)N2C)n1` [Example 29, (6S)-3-[2,6-Difluoro-4-(2-phenylethynyl)phenyl]-6-(1-isopropylpyrazol-3-yl)-1,6-dimethyl-hexahydropyrimidine-2,4-dione], on human mGlu4 receptor, the Emax was found to be 146% and the EC50 was determined as 126 nM. For `CN1C(=O)N(c2c(F)cc(C#Cc3ccccc3F)cc2F)C(=O)C[C@@]1(C)c1cnn(C)c1` [Example 50, (6S)-3-[2,6-Difluoro-4-[2-(2-fluorophenyl)ethynyl]phenyl]-1,6-dimethyl-6-(1-methylpyrazol-4-yl)hexahydropyrimidine-2,4-dione], in that order: 147% and 50 nM. For `CN1C(=O)N(c2c(F)cc(C#Cc3ccccc3)cc2F)C(=O)C[C@@]1(C)c1cnco1` [Example 35, (6S)-3-[2,6-Difluoro-4-(2-phenylethynyl)phenyl]-1,6-dimethyl-6-oxazol-5-yl-hexahydropyrimidine-2,4-dione], on human mGlu4 receptor, the Emax worked out at 195% and the EC50 is 90 nM.

For `CC[C@@]1(c2cnn(C)c2)CC(=O)N(c2c(F)cc(C#Cc3ccccc3)cc2F)C(=O)N1C` [Example 18, (6S)-3-[2,6-Difluoro-4-(2-phenylethynyl)phenyl]-6-ethyl-1-methyl-6-(1-methylpyrazol-4-yl)hexahydropyrimidine-2,4-dione], at human mGlu4 receptor, the Emax was 135% and the EC50 turned out to be 47 nM.

Broadly, the EC50 is the concentration needed to bring the measured effect to its halfway point.
